Measurements taken from ChEMBL document CHEMBL1201862, “PubChem BioAssay data set” (2004).
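Briefly, cells in 96-well plates were exposed to five compound concentrations for 48 h, and endpoints were estimated by linear interpolation. GI50 is the concentration that inhibits growth by half.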 The source made the active and inactive calls. No stated cut-off is given here; in the data, active = GI50 up to about 1.1 µM and inactive = higher.

What was measured:
Assay in all cases: NCI anticancer screen, dose series, 48 h
[1] = test system: 786-0
[2] = test system: A549
[3] = test system: ACHN
[4] = test system: CCRF-CEM
[5] = test system: COLO 205
[6] = test system: DU-145
[7] = test system: EKVX
[8] = test system: HCT-116
[9] = test system: HCT-15
[10] = test system: HL-60
[11] = test system: HOP-62
[12] = test system: HOP-92
[13] = test system: HT-29
[14] = test system: Hs-578T
[15] = test system: IGROV-1
[16] = test system: K562
[17] = test system: KM12
[18] = test system: LOX IMVI
[19] = test system: M14
[20] = test system: MCF7
[21] = test system: MDA-MB-231
[22] = test system: MDA-MB-435
[23] = test system: MDA-N
[24] = test system: MOLT-4
[25] = test system: Malme-3M
[26] = test system: NCI-H226
[27] = test system: NCI-H23
[28] = test system: NCI-H522
[29] = test system: NCI/ADR-RES
[30] = test system: OVCAR-3
[31] = test system: OVCAR-5
[32] = test system: OVCAR-8
[33] = test system: PC-3
[34] = test system: RPMI-8226
[35] = test system: SF-268
[36] = test system: SF-295
[37] = test system: SK-MEL-28
[38] = test system: SK-MEL-2
[39] = test system: SK-MEL-5
[40] = test system: SK-OV-3
[41] = test system: SN12C
[42] = test system: SNB-19
[43] = test system: SNB-75
[44] = test system: SR
[45] = test system: SW-620
[46] = test system: TK-10
[47] = test system: U-251
[48] = test system: UACC-62
[49] = test system: UO-31
[50] = test system: A498
[51] = test system: BT-549
[52] = test system: CAKI-1
[53] = test system: HCC 2998
[54] = test system: NCI-H460
[55] = test system: OVCAR-4
[56] = test system: SF-539
[57] = test system: UACC-257

## CCSc1n/c(=C\c2ccco2)c2nncn12
[1]
  GI50: > 100 µM (inactive)
[2]
  GI50: > 100 µM (inactive)
[3]
  GI50: > 100 µM (inactive)
[4]
  GI50: > 100 µM (inactive)
[5]
  GI50: > 100 µM (inactive)
[6]
  GI50: > 100 µM (inactive)
[7]
  GI50: > 100 µM (inactive)
[8]
  GI50: > 100 µM (inactive)
[9]
  GI50: > 100 µM
[10]
  GI50: > 100 µM (inactive)
[11]
  GI50: > 100 µM (inactive)
[12]
  GI50: 40.7 µM (inactive)
[13]
  GI50: > 100 µM (inactive)
[14]
  GI50: > 100 µM (inactive)
[15]
  GI50: > 100 µM (inactive)
[16]
  GI50: > 100 µM (inactive)
[17]
  GI50: > 100 µM (inactive)
[18]
  GI50: > 100 µM (inactive)
[19]
  GI50: > 100 µM (inactive)
[20]
  GI50: > 100 µM (inactive)
[21]
  GI50: > 100 µM (inactive)
[22]
  GI50: > 100 µM (inactive)
[23]
  GI50: > 100 µM (inactive)
[24]
  GI50: > 100 µM (inactive)
[25]
  GI50: > 100 µM (inactive)
[26]
  GI50: > 100 µM (inactive)
[27]
  GI50: > 100 µM (inactive)
[28]
  GI50: > 100 µM (inactive)
[29]
  GI50: > 100 µM (inactive)
[30]
  GI50: > 100 µM (inactive)
[31]
  GI50: > 100 µM (inactive)
[32]
  GI50: > 100 µM (inactive)
[33]
  GI50: > 100 µM (inactive)
[34]
  GI50: > 100 µM (inactive)
[35]
  GI50: > 100 µM (inactive)
[36]
  GI50: > 100 µM (inactive)
[37]
  GI50: > 100 µM (inactive)
[38]
  GI50: > 100 µM (inactive)
[39]
  GI50: > 100 µM (inactive)
[40]
  GI50: > 100 µM (inactive)
[41]
  GI50: > 100 µM (inactive)
[42]
  GI50: > 100 µM (inactive)
[43]
  GI50: > 100 µM (inactive)
[44]
  GI50: > 100 µM (inactive)
[45]
  GI50: > 100 µM (inactive)
[46]
  GI50: > 100 µM (inactive)
[47]
  GI50: > 100 µM (inactive)
[48]
  GI50: > 100 µM (inactive)
[49]
  GI50: > 100 µM (inactive)

## Cc1cc(C)nc(NS(=O)(=O)c2ccc(NC(=O)c3c4ccccc4nc4ccccc34)cc2)n1
[1]
  GI50: 49 µM (inactive)
[50]
  GI50: > 100 µM (inactive)
[2]
  GI50: > 100 µM (inactive)
[3]
  GI50: 84.7 µM (inactive)
[51]
  GI50: 96.4 µM (inactive)
[52]
  GI50: 87.3 µM (inactive)
[4]
  GI50: > 100 µM (inactive)
[5]
  GI50: 75.2 µM (inactive)
[6]
  GI50: 93.1 µM (inactive)
[7]
  GI50: > 100 µM (inactive)
[53]
  GI50: > 100 µM (inactive)
[8]
  GI50: 68.4 µM (inactive)
[9]
  GI50: 65.9 µM
[11]
  GI50: 61.7 µM (inactive)
[12]
  GI50: > 100 µM (inactive)
[13]
  GI50: 50.8 µM (inactive)
[15]
  GI50: 31.2 µM (inactive)
[16]
  GI50: > 100 µM (inactive)
[17]
  GI50: 47 µM (inactive)
[18]
  GI50: 81.1 µM (inactive)
[19]
  GI50: > 100 µM (inactive)
[20]
  GI50: > 100 µM (inactive)
[21]
  GI50: > 100 µM (inactive)
[22]
  GI50: > 100 µM (inactive)
[23]
  GI50: > 100 µM (inactive)
[24]
  GI50: > 100 µM (inactive)
[25]
  GI50: 17.4 µM (inactive)
[26]
  GI50: 35.9 µM (inactive)
[27]
  GI50: 44.2 µM (inactive)
[54]
  GI50: > 100 µM (inactive)
[28]
  GI50: 64.3 µM (inactive)
[29]
  GI50: > 100 µM (inactive)
[30]
  GI50: 56.9 µM (inactive)
[55]
  GI50: > 100 µM (inactive)
[31]
  GI50: > 100 µM (inactive)
[32]
  GI50: 47.9 µM (inactive)
[33]
  GI50: > 100 µM (inactive)
[34]
  GI50: 47.3 µM (inactive)
[35]
  GI50: > 100 µM (inactive)
[36]
  GI50: > 100 µM (inactive)
[56]
  GI50: > 100 µM (inactive)
[37]
  GI50: > 100 µM (inactive)
[38]
  GI50: > 100 µM (inactive)
[39]
  GI50: 38.1 µM (inactive)
[40]
  GI50: > 100 µM (inactive)
[41]
  GI50: > 100 µM (inactive)
[42]
  GI50: > 100 µM (inactive)
[43]
  GI50: > 100 µM (inactive)
[44]
  GI50: > 100 µM (inactive)
[45]
  GI50: > 100 µM (inactive)
[46]
  GI50: 82.2 µM (inactive)
[47]
  GI50: 69.3 µM (inactive)
[57]
  GI50: > 100 µM (inactive)
[48]
  GI50: > 100 µM (inactive)
[49]
  GI50: 37.4 µM (inactive)

## Nc1c2c(nc3ccccc13)-c1ccccc1CC2
[1]
  GI50: 3.52 µM (inactive)
[50]
  GI50: 3.16 µM (inactive)
[3]
  GI50: 3.56 µM (inactive)
[51]
  GI50: 13.2 µM (inactive)
[4]
  GI50: 3.4 µM (inactive)
[5]
  GI50: 3.76 µM (inactive)
[53]
  GI50: 1.43 µM (inactive)
[8]
  GI50: 3.76 µM (inactive)
[9]
  GI50: 3.96 µM
[10]
  GI50: 0.942 µM (active)
[12]
  GI50: 8.09 µM (inactive)
[14]
  GI50: 16.4 µM (inactive)
[15]
  GI50: 3.82 µM (inactive)
[16]
  GI50: 3.56 µM (inactive)
[18]
  GI50: 4.34 µM (inactive)
[20]
  GI50: 1.85 µM (inactive)
[21]
  GI50: 3.88 µM (inactive)
[23]
  GI50: 4.19 µM (inactive)
[24]
  GI50: 2.38 µM (inactive)
[25]
  GI50: 8.49 µM (inactive)
[26]
  GI50: 12.1 µM (inactive)
[27]
  GI50: 10.6 µM (inactive)
[54]
  GI50: 2.12 µM (inactive)
[28]
  GI50: 8.67 µM (inactive)
[29]
  GI50: 5.32 µM (inactive)
[32]
  GI50: 4.37 µM (inactive)
[33]
  GI50: 3.59 µM (inactive)
[34]
  GI50: 4.09 µM (inactive)
[35]
  GI50: 7.82 µM (inactive)
[56]
  GI50: 3.24 µM (inactive)
[37]
  GI50: 10.4 µM (inactive)
[38]
  GI50: 11 µM (inactive)
[39]
  GI50: 4.04 µM (inactive)
[41]
  GI50: 4.06 µM (inactive)
[44]
  GI50: 2.33 µM (inactive)
[45]
  GI50: 3.15 µM (inactive)
[46]
  GI50: 3.96 µM (inactive)
[47]
  GI50: 4.17 µM (inactive)
[57]
  GI50: 2.82 µM (inactive)
[48]
  GI50: 9.68 µM (inactive)
